According to patent US8344008B2 (Janssen Pharmaceutica NV, priority 2007, dated 2013):
Counter-ions that a name gives are not always drawn.

Target: T1, recombinant human LTA4 hydrolase (rhLTA4H) (Homo sapiens, UniProt P09960)
T1 construct: made in house; host or cells: Spodoptera frugiperda (Sf-9) cells, baculovirus (pFastBac1)
T1 sequence (P09960 1-611): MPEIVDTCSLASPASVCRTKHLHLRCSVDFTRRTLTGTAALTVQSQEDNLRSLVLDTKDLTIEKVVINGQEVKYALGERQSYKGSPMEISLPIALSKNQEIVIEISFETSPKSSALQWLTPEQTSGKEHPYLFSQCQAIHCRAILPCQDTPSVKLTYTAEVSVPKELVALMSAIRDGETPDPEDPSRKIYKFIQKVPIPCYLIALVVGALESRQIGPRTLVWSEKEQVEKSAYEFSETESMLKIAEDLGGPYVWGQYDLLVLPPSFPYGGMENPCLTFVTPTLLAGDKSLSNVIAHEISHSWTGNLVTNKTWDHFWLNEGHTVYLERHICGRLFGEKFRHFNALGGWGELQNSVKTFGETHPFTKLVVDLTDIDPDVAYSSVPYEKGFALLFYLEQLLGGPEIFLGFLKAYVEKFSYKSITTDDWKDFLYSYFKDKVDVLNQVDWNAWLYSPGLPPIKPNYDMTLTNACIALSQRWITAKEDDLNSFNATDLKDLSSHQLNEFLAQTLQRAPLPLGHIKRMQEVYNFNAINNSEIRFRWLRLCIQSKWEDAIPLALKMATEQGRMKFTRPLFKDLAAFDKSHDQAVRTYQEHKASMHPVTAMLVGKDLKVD
Assay: Recombinant Human LTA4 Hydrolase Assay for LTA4 Hydrolase Inhibitor Activity
Assay type: biochemical
Details: average of results obtained; LTB4 quantified by enzyme-linked immunoassay
Outline: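 Baculovirus/Sf-9-expressed human LTA4 hydrolase (36 ng) preincubated with compound 10 min at rt in 0.1 M potassium phosphate pH 7.4, 5 mg/mL fatty-acid-free BSA. Reaction started with 9 ng LTA4 free acid, run 10 min at rt; LTB4 measured by enzyme immunoassay, IC50 from 4-parameter fit.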

| Compound | Ki |
| --- | --- |
| CS(=O)(=O)N1CCC2CN(Cc3ccc(Oc4nc5ccccc5s4)cc3)CC21 (stereo not shown) [Example 127, 2-[4-(1-Methanesulfonyl-hexahydro-pyrrolo[3,4-b]pyrrol-5-ylmethyl)-phenoxy]-benzothiazole] | 273 nM |
| COC(=O)CCCN1CC2CN(Cc3ccc(Oc4nc5ccccc5s4)cc3)CC2C1 (stereo not shown) [Example 156, 4-{5-[4-(Benzothiazol-2-yloxy)-benzyl]-hexahydro-pyrrolo[3,4-c]pyrrol-2-yl}-butyric acid methyl ester] | 47 nM |
| CS(=O)(=O)N1CC2CCC(C1)N2CCOc1ccc(Oc2nc3ccc(F)cc3s2)cc1 [Example 243, meso-6-Fluoro-2-{4-[2-(3-methanesulfonyl-3,8-diaza-bicyclo[3.2.1]oct-8-yl)-ethoxy]-phenoxy}-benzothiazole] | 61 nM |
| COCC(=O)N1C[C@H]2C[C@@H]1CN2Cc1ccc(Oc2nc3ccccc3s2)cc1 [Example 21, (R,R)-1-{5-[4-(Benzothiazol-2-yloxy)-benzyl]-2,5-diaza-bicyclo[2.2.1]hept-2-yl}-2-methoxy-ethanone] | 13 nM |
| CC(=O)N1C[C@H]2C[C@@H]1CN2CCc1ccc(Oc2nc3cc(Cl)ccc3s2)cc1 [Example 274, (R,R)-1-(5-{2-[4-(5-Chloro-benzothiazol-2-yloxy)-phenyl]-ethyl}-2,5-diaza-bicyclo[2.2.1]hept-2-yl)-ethanone] | 121 nM |
| CC(=O)N[C@@H]1C[C@H]2CC[C@@H](C1)N2CCc1ccc(Oc2nc3ccc(Cl)cc3s2)cc1 [Example 163, meso-exo-N-(8-{2-[4-(6-Chloro-benzothiazol-2-yloxy)-phenyl]-ethyl}-8-aza-bicyclo[3.2.1]oct-3-yl)-acetamide] | 86 nM |
| O=C(c1ccoc1)N1CC2CN(Cc3ccc(Oc4nc5ccccc5s4)cc3)CC2C1 (stereo not shown) [Example 110, {5-[4-(Benzothiazol-2-yloxy)-benzyl]-hexahydro-pyrrolo[3,4-c]pyrrol-2-yl}-furan-3-yl-methanone] | 88 nM |
| CC(C)(C)OC(=O)NCC(=O)N1C[C@@H]2C[C@H]1CN2Cc1ccc(Oc2nc3ccccc3s2)cc1 [Example 14, (S,S)-(2-{5-[4-(Benzothiazol-2-yloxy)-benzyl]-2,5-diaza-bicyclo[2.2.1]hept-2-yl}-2-oxo-ethyl)-carbamic acid tert-butyl ester] | 9 nM |
| Cc1ccc2nc(Oc3ccc(CCN[C@@H]4C[C@H]5CC[C@@H](C4)N5C(N)=O)cc3)sc2c1 [Example 173, meso-exo-3-{2-[4-(6-Methyl-benzothiazol-2-yloxy)-phenyl]-ethylamino}-8-aza-bicyclo[3.2.1]octane-8-carboxylic acid amide] | 973 nM |
| CC(=O)N1[C@@H]2CC[C@H]1C[C@H](NCc1ccc(Oc3nc4ccc(C)cc4s3)cc1)C2 [Example 184, meso-exo-1-{3-[4-(6-Methyl-benzothiazol-2-yloxy)-benzylamino]-8-aza-bicyclo[3.2.1]oct-8-yl}-ethanone] | 406 nM |
| NC(=O)N1C[C@@H]2C[C@H]1CN2CCc1cccc(Oc2nc3ccccc3s2)c1 [Example 39, (S,S)-5{2-[3-(Benzothiazol-2-yloxy)-phenyl]-ethyl}2,5-diaza-bicyclo[2.2.1]heptane-2-carboxylic acid amide] | 100 nM |
| CC(=O)N1[C@@H]2CC[C@H]1C[C@@H](NCCOc1ccc(Oc3nc4ccc(C)cc4s3)cc1)C2 [Example 172, meso-exo-1-(3-{2-[4-(6-Methyl-benzothiazol-2-yloxy)-phenoxy]-ethylamino}-8-aza-bicyclo[3.2.1]oct-8-yl)-ethanone] | 1050 nM |
| CC(=O)N1C[C@@H]2C[C@H]1CN2Cc1ccc(Oc2nc3cc(F)ccc3s2)cc1 [Example 170, (S,S)-1-{5-[4-(5-Fluoro-benzothiazol-2-yloxy)-benzyl]-2,5-diaza-bicyclo[2.2.1]hept-2-yl}-ethanone] | 90 nM |
| CC(=O)N1[C@@H]2CC[C@H]1C[C@@H](NCc1ccc(Oc3nc4ccc(F)cc4s3)cc1)C2 [Example 175, meso-endo-1-{3-[4-(6-Fluoro-benzothiazol-2-yloxy)-benzylamino]-8-aza-bicyclo[3.2.1]oct-8-yl}-ethanone] | 53 nM |
| Cn1ccc(S(=O)(=O)N2CC3CN(Cc4ccc(Oc5nc6ccccc6s5)cc4)CC3C2)c1 (stereo not shown) [Example 123, 2-{4-[5-(1-Methyl-1H-pyrrole-3-sulfonyl)-hexahydro-pyrrolo[3,4-c]pyrrol-2-ylmethyl]-phenoxy}-benzothiazole] | 97 nM |

Other lines, results leading:

| Ki | Compound |
| --- | --- |
| 13 nM | CC(=O)N1C[C@@H]2C[C@H]1CN2CCc1ccc(Oc2nc3ccccc3s2)cc1 [Example 7, (S,S)-1-(5-{2-[4-(Benzothiazol-2-yloxy)-phenyl]-ethyl}-2,5-diaza-bicyclo[2.2.1]hept-2-yl)-ethanone] |
| 10 nM | c1ccc2sc(Oc3ccc(CCN4C[C@@H]5C[C@H]4CN5)cc3)nc2c1 [Example 7B, (S,S)-2-{4-[2-(2,5-Diaza-bicyclo[2.2.1]hept-2-yl)-ethyl]-phenoxy}-benzothiazole hydrochloride] |
| 38 nM | NC(=O)N1C[C@@H]2C[C@H]1CN2CCOc1ccc(Oc2nc3ccccc3s2)cc1 [Example 40, (S,S)-5-{2-[4-(Benzothiazol-2-yloxy)-phenoxy]-ethyl}-2,5-diaza-bicyclo[2.2.1]heptane-2-carboxylic acid amide] |
| 26 nM | NC(=O)N[C@@H]1C[C@H]2CC[C@@H](C1)N2Cc1ccc(Oc2nc3cc(F)ccc3s2)cc1 [Example 260, meso-exo-{8-[4-(5-Fluoro-benzothiazol-2-yloxy)-benzyl]-8-aza-bicylclo[3.2.1]oct-3-yl}-urea] |
| 18 nM | O=C(Nc1ccncc1)N1CC2CN(Cc3ccc(Oc4nc5ccccc5s4)cc3)CC2C1 (stereo not shown) [Example 132, 5-[4-(Benzothiazol-2-yloxy)-benzyl]-hexahydro-pyrrolo[3,4-c]pyrrole-2-carboxylic acid pyridin-4-yl amide] |
| 360 nM | CC(=O)N1[C@@H]2CC[C@H]1C[C@H](NCCOc1ccc(Oc3nc4ccc(Cl)cc4s3)cc1)C2 [Example 268, meso-exo-1-(3-{2-[4-(6-Chloro-benzothiazol-2-yloxy)-phenoxy]-ethylamino}-8-aza-bicyclo[3.2.1]oct-8-yl)-ethanone] |
| 29 nM | NC(=O)N1C[C@H]2CCN(Cc3ccc(Oc4nc5ccccc5s4)cc3)[C@H]2C1 [Example 138, (R,R)-1-[4-(Benzothiazol-2-yloxy)-benzyl]-hexahydro-pyrrolo[3,4-b]pyrrole-5-carboxylic acid amide] |
| 130 nM | CS(=O)(=O)N[C@H]1C[C@H]2CC[C@@H](C1)N2CCOc1ccc(Oc2nc3ccc(Cl)cc3s2)cc1 [Example 222, meso-endo-N-(8-{2-[4-(6-Chloro-benzothiazol-2-yloxy)-phenoxy]-ethyl}-8-aza-bicyclo[3.2.1]oct-3-yl)-methanesulfonamide] |
| 11 nM | NC(=O)N1C[C@H]2C[C@@H]1CN2CCc1ccc(Oc2nc3ccccc3s2)cc1 [Example 280, (R,R)-5-{2-[4-(Benzothiazol-2-yloxy)-phenyl]-ethyl}-2,5-diaza-bicyclo[2.2.1]heptane-2-carboxylic acid amide] |
| 2600 nM | CC(=O)N1C[C@@H]2C[C@H]1CN2CCc1ccc(Oc2nc3c(Cl)cccc3s2)cc1 [Example 253, (S,S)-1-(5-{2-[4-(4-Chloro-benzothiazol-2-yloxy)-phenyl]-ethyl}-2,5-diaza-bicyclo[2.2.1]hept-2-yl)-ethanone] |
